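These data come from cells grown in 96-well plates and exposed to compound for 48 hours at five concentrations. GI50 = concentration required for 50% inhibition of growth. TGI: concentration producing complete growth inhibition.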
Assays:
Experiment in all cases: NCI-60 cell line screen, 48 h
[1] = tested on: SNB-75 CNS
[2] = tested on: SF-295 CNS
[3] = tested on: UO-31 renal
[4] = tested on: HOP-62 NSCLC
[5] = tested on: COLO 205 colon
[6] = tested on: HL-60(TB) leukemia
[7] = tested on: KM12 colon
[8] = tested on: T-47D breast
[9] = tested on: SNB-19 CNS
[10] = tested on: TK-10 renal
[11] = tested on: NCI/ADR-RES ovarian
[12] = tested on: MALME-3M melanoma
[13] = tested on: SK-MEL-5 melanoma
[14] = tested on: CCRF-CEM leukemia
[15] = tested on: RXF 393 renal
[16] = tested on: BT-549 breast
[17] = tested on: OVCAR-3 ovarian
[18] = tested on: A549 NSCLC
[19] = tested on: HT29 colon
[20] = tested on: MDA-MB-231 breast
[21] = tested on: NCI-H522 lung
[22] = tested on: UACC-62 melanoma
[23] = tested on: CAKI-1 renal
[24] = tested on: OVCAR-5 ovarian
[25] = tested on: HS 578T breast
[26] = tested on: HCT-116 colon
[27] = tested on: NCI-H460 lung
[28] = tested on: SN12C renal
[29] = tested on: SF-539 CNS
[30] = tested on: U251 CNS
[31] = tested on: OVCAR-8 ovarian
[32] = tested on: HCT-15 colon
[33] = tested on: RPMI-8226 leukemia
[34] = tested on: UACC-257 melanoma
[35] = tested on: SW-620 colon
[36] = tested on: NCI-H226 lung
[37] = tested on: PC-3 prostate
[38] = tested on: MDA-MB-435
[39] = tested on: SK-MEL-28 melanoma
[40] = tested on: IGROV1 ovarian
[41] = tested on: HCC-2998 colon
[42] = tested on: M14 melanoma
[43] = tested on: SF-268 CNS
[44] = tested on: K-562 leukemia
[45] = tested on: 786-0 renal
[46] = tested on: NCI-H23 lung
[47] = tested on: A498 renal
[48] = tested on: OVCAR-4 ovarian
[49] = tested on: SR leukemia
[50] = tested on: MCF7 breast
[51] = tested on: DU-145 prostate
[52] = tested on: SK-OV-3 ovarian
[53] = tested on: MOLT-4 leukemia
[54] = tested on: ACHN renal
[55] = tested on: EKVX NSCLC
[56] = tested on: HOP-92 NSCLC

COc1ccc(/C=C/C(=O)/C=C/c2cc3ccccc3[nH]c2=O)cc1
GI50 [1]: 4.33 µM | TGI [1]: 18.7 µM | GI50 [2]: 2.65 µM | TGI [2]: 8.02 µM | GI50 [3]: 3.48 µM | TGI [3]: 17.9 µM | GI50 [4]: 4.67 µM | TGI [4]: 17.8 µM | GI50 [5]: 3.31 µM | TGI [5]: 9.37 µM | GI50 [6]: 3.24 µM | TGI [6]: 17.6 µM | GI50 [7]: 2.62 µM | TGI [7]: 6.95 µM | GI50 [8]: 3.34 µM | TGI [8]: 12.4 µM | GI50 [9]: 10.6 µM | TGI [9]: 29 µM | GI50 [10]: 5.45 µM | TGI [10]: 17.4 µM | GI50 [11]: 20.5 µM | TGI [11]: > 100 µM | GI50 [12]: 9.17 µM | TGI [12]: 35.6 µM | GI50 [13]: 11 µM | TGI [13]: 25.1 µM | GI50 [14]: 2.98 µM | TGI [14]: 9.68 µM | GI50 [15]: 3.31 µM | TGI [15]: 11.9 µM | GI50 [16]: 2.25 µM | TGI [16]: 6.19 µM | GI50 [17]: 2.85 µM | TGI [17]: 7.91 µM | GI50 [18]: 3.16 µM | TGI [18]: 12.6 µM | GI50 [19]: 2.47 µM | TGI [19]: 5.94 µM | GI50 [20]: 2.87 µM | TGI [20]: 10.9 µM | GI50 [21]: 1.97 µM | TGI [21]: 4.67 µM | GI50 [22]: 2.43 µM | TGI [22]: 9.41 µM | GI50 [23]: 4.3 µM | TGI [23]: 17.8 µM | GI50 [24]: 5.13 µM | TGI [24]: 19.9 µM | GI50 [25]: 3.14 µM | TGI [25]: 47 µM | GI50 [26]: 1.55 µM | TGI [26]: 3.24 µM | GI50 [27]: 4.98 µM | TGI [27]: 20 µM | GI50 [28]: 2.41 µM | TGI [28]: 6.73 µM | GI50 [29]: 2.63 µM | TGI [29]: 7.13 µM | GI50 [30]: 1.81 µM | TGI [30]: 3.73 µM | GI50 [31]: 3.55 µM | TGI [31]: 22.4 µM | GI50 [32]: 2.41 µM | TGI [32]: 7.69 µM | GI50 [33]: 1.77 µM | TGI [33]: 5.02 µM | GI50 [34]: 10.8 µM | TGI [34]: 25.3 µM | GI50 [35]: 1.89 µM | TGI [35]: 4.56 µM | GI50 [36]: 4.42 µM | TGI [36]: 19.7 µM | GI50 [37]: 2.38 µM | TGI [37]: 7.81 µM | GI50 [38]: 2.22 µM | TGI [38]: 5.07 µM | GI50 [39]: 13.9 µM | TGI [39]: 34.7 µM | GI50 [40]: 2.21 µM | TGI [40]: 5.1 µM | GI50 [41]: 2.19 µM | TGI [41]: 4.13 µM | GI50 [42]: 2.8 µM | TGI [42]: 8.92 µM | GI50 [43]: 3.11 µM | TGI [43]: 11.4 µM | GI50 [44]: 3.34 µM | TGI [44]: > 100 µM | GI50 [45]: 1.87 µM | TGI [45]: 3.51 µM | GI50 [46]: 4.31 µM | TGI [46]: 19.8 µM | GI50 [47]: 5.73 µM | TGI [47]: 18.8 µM | GI50 [48]: 9.73 µM | TGI [48]: > 100 µM | GI50 [49]: 2.88 µM | TGI [49]: 8.65 µM | GI50 [50]: 2.11 µM | TGI [50]: 11.1 µM | GI50 [51]: 3.36 µM | TGI [51]: 10.3 µM | GI50 [52]: 9.22 µM | TGI [52]: 26.7 µM | GI50 [53]: 3.2 µM | TGI [53]: 9.24 µM | GI50 [54]: 3.81 µM | TGI [54]: 15.5 µM

O=CNNC(=O)Nc1cccc2ccccc12
TGI [1]: > 100 µM | TGI [2]: > 100 µM | TGI [3]: > 100 µM | TGI [4]: > 100 µM | TGI [5]: > 100 µM | TGI [6]: > 100 µM | TGI [7]: > 100 µM | TGI [8]: > 100 µM | TGI [9]: > 100 µM | TGI [10]: > 100 µM | TGI [11]: > 100 µM | TGI [12]: > 100 µM | TGI [13]: > 100 µM | TGI [14]: > 100 µM | TGI [15]: > 100 µM | TGI [18]: > 100 µM | TGI [19]: > 100 µM | TGI [20]: > 100 µM | TGI [22]: > 100 µM | TGI [24]: > 100 µM | TGI [25]: > 100 µM | TGI [26]: > 100 µM | TGI [27]: > 100 µM | TGI [55]: > 100 µM | TGI [28]: > 100 µM | TGI [29]: > 100 µM | TGI [30]: > 100 µM | TGI [31]: > 100 µM | TGI [32]: > 100 µM | TGI [33]: > 100 µM | TGI [34]: > 100 µM | TGI [35]: > 100 µM | TGI [36]: > 100 µM | TGI [38]: > 100 µM | TGI [39]: > 100 µM | TGI [40]: > 100 µM | TGI [41]: > 100 µM | TGI [42]: > 100 µM | TGI [43]: > 100 µM | TGI [44]: > 100 µM | TGI [45]: > 100 µM | TGI [46]: > 100 µM | TGI [48]: > 100 µM | TGI [49]: > 100 µM | TGI [50]: > 100 µM | TGI [51]: > 100 µM | TGI [52]: > 100 µM | TGI [53]: > 100 µM | TGI [54]: > 100 µM

CCOC(=O)c1sc(-c2ccc(OS(=O)(=O)c3ccccc3[N+](=O)[O-])c(C=O)c2)nc1C
GI50 [1]: 1.37 µM | TGI [1]: 8.44 µM | GI50 [3]: 2.36 µM | TGI [3]: > 100 µM | GI50 [56]: 1.92 µM | TGI [56]: 5.5 µM | GI50 [14]: 1.83 µM | TGI [14]: 4.49 µM | GI50 [15]: 1.62 µM | TGI [15]: 5.77 µM | GI50 [25]: 2.99 µM | TGI [25]: > 100 µM | GI50 [44]: 1.61 µM | TGI [44]: > 100 µM | GI50 [47]: 0.532 µM | TGI [47]: 7.57 µM | GI50 [49]: 1.96 µM | TGI [49]: > 100 µM | GI50 [51]: 3.24 µM | TGI [51]: > 100 µM
